Here are results for 9 molecules from BindingDB's records for doi:10.7270/Q2ZC819K (Burnham Center For Chemical Genomics, 2009).

Each structure is given as a SMILES string.

The target in this assay is Polyadenylate-binding protein 1 (Homo sapiens, UniProt P11940). Description: PABP poly(A) RNA binding inhibitors, primary screen, biochemical, fluorescence polarization, uHTS (AID 2014).
Sequence of Polyadenylate-binding protein 1 (P11940 whole entry): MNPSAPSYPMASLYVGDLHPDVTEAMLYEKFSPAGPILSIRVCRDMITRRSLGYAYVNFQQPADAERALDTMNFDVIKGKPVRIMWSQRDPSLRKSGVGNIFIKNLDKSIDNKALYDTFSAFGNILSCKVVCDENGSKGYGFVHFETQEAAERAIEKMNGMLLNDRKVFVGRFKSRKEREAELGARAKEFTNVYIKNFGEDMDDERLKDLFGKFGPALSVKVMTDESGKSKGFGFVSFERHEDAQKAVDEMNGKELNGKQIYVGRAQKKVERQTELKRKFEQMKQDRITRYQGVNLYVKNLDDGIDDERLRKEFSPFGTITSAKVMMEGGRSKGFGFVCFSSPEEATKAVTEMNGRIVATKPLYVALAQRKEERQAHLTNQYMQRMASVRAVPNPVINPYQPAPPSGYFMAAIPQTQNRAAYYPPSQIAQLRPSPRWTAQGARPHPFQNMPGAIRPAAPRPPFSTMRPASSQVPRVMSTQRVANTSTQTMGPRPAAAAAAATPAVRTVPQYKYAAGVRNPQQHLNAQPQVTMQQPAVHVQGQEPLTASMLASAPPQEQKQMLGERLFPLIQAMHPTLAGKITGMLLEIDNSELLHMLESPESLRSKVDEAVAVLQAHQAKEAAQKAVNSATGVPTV
Turning to `COc1ccc(CN=Nc2nc(O)c(CC(=O)O)s2)cc1OCc1ccc(Cl)cc1Cl` [[2-({3-[(2,4-dichlorobenzyl)oxy]-4-methoxybenzylidene}hydrazono)-4-oxo-1,3-thiazolidin-5-yl]acetic acid], the IC50 came to 64.3 µM. This lies in the double-digit micromolar range. For `COc1cc(C)cc(C(=O)O)c1C1C(=O)C(=O)c2c(O)cccc2C1=O` (centres undefined) [MLS000877007] the value was 5.41 µM; for `CCn1c(=NC(=O)c2ccc(-n3c(O)ccc3O)cc2)sc2c(OC)ccc(OC)c21` [4-[2,5-bis(oxidanylidene)pyrrolidin-1-yl]-N-(3-ethyl-4,7-dimethoxy-1,3-benzothiazol-2-ylidene)benzamide], 100 µM; for `COc1ccc2c(c1)=C(NNC(=O)Cc1cccs1)C(=O)N=2`, 31 µM. For `CC[N+](C)(CC)CCCC(N=O)C(O)(c1ccccc1)c1ccccc1` (centres undefined) [diethyl-(5-hydroxy-4-hydroxyimino-5,5-diphenylpentyl)-methylammonium;iodide] the value was 5.57 µM; for `CC1=NC(=O)NC(c2ccco2)C1C(=O)OC(C)C` (centres undefined) [SMR000120838], 42.8 µM; for `O=C(O)c1ccc(N=NCc2cc3c(cc2[N+](=O)[O-])OCO3)cc1`, 48.8 µM. For `CC1(C)Oc2ccc3ccc(=O)oc3c2C(CN=O)=C1Cl` [9-chloro-2-keto-8,8-dimethyl-pyrano[2,3-f]chromene-10-carbaldehyde oxime] the value was 10.3 µM; for `O=C1N=c2ccccc2=C1NNC(=O)c1cc(-c2cccs2)n[nH]1` [N'-(2-oxoindol-3-yl)-5-thiophen-2-yl-1H-pyrazole-3-carbohydrazide], 28.8 µM.
